Results published in paper PMC4735769 (Cancer Medicine, 2015).

What was measured:
[1] = tested on: pediatric patients with relapsed solid tumors; experiment: phase I dose escalation of oral sorafenib and topotecan: toxicity, DLT, MTD; conditions: osteosarcoma patient with prior doxorubicin 450 mg/m^2, on digoxin and lisinopril; cycle 2
Experimental: Intra‐patient dose escalation was not allowed on this study. […] Total daily dose for patients was rounded to the nearest 50 mg tablet size based on patient BSA (a dosing nomogram was used to minimize inter‐patient dosing variability). Patients ingested tablets with clear liquids (2–4 ounces for children <12 and 4 ounces for ≥12 years) and while dispersion in liquid was allowed, all patients swallowed tablets.
The capsules could not be chewed, crushed, or divided and were swallowed whole. […] Vials were dispensed in light protective bags and kept refrigerated. The reconstituted formulation was drawn up in oral syringes to the prescribed volume and administered to the patient immediately after reconstitution.
This dose‐escalation study used a standard 3 + 3 design, with up to six patients being enrolled on a DL. Enrollment to subsequent DLs was determined by the number of enrolled patients, the number with DLTs, and the number at risk for DLTs.
Toxicity was graded according to the Common Terminology Criteria for Adverse Events version 4.0 (http://ctep.cancer.gov). […]

pediatric patients = conditions: phase I single-agent pediatric trial; cited from earlier work
[2] = tested on: pediatric preclinical cell models; conditions: read-out: median IC50; cited from earlier work
[3] = sorafenib plasma pharmacokinetics (LC-MS/MS, noncompartmental); type: in vivo, human
Experimental: Plasma samples were analyzed by protein precipitation. Calibration curves, linear from 5 to 2500 ng/mL with an R ^2 of >0.99, were generated for each run, with patient sample concentrations back‐calculated from the corresponding regression line.
(§1) Plasma concentration‐time data for both drugs were analyzed by noncompartmental methods using Phoenix WinNonlin 6.3 (Pharsight Corp., Mountain View, CA).

[4] = topotecan plasma pharmacokinetics, total and lactone (HPLC fluorescence, noncompartmental); conditions: for T min: total topotecan
Experimental: The calibration curve was linear from 0.125 to 50 ng/mL, with the regression meeting acceptable criteria, with patient samples calculated as described above.
as §1

[5] = Cycle 1, day 28, 150 mg/m^2 (n = 8), steady state, sorafenib alone
[6] = Cycle 1, day 28, 200 mg/m^2 (n = 1), steady state, sorafenib alone
[7] = Cycle 2, day 1, 150 mg/m^2 (n = 6), steady state, with topotecan
[8] = Cycle 2, day 1, 200 mg/m^2 (n = 1), steady state, with topotecan

CNC(=O)c1cc(Oc2ccc(NC(=O)Nc3ccc(Cl)c(C(F)(F)F)c3)cc2)ccn1 [Sorafenib]
left ventricular ejection fraction on restart of sorafenib [1]: ejection fraction again fell to grade 3 | dose-limiting toxicities (DLTs) (pediatric patients): rash and hypertension | IC50 [2]: 4.3 µM | C avg [3, 5]: 5400 ± 2600 ng/mL | C max [3, 5]: 6800 ± 3500 ng/mL | C min [3, 5]: 2900 ± 2500 ng/mL | T max [3, 5]: 4.0 ± 3.3 h | T min [3, 5]: 4.6 ± 3.4 h | C avg [3, 6]: 7600 ng/mL | C min [3, 6]: 4900 ng/mL | T max [3, 6]: 3 h | T min [3, 6]: 8 h | C avg [3, 7]: 4500 ± 3800 ng/mL | C min [3, 7]: 3100 ± 2800 ng/mL | T min [3, 7]: 4.3 ± 2.7 h | C avg [3, 8]: 9800 ng/mL | C min [3, 8]: 6700 ng/mL | T min [3, 8]: 5 h | dose-normalized AUC, exposure to sorafenib with vs without topotecan ([3]; cycle 1 day 28 vs cycle 2 day 1, all dose levels): comparable amounts of exposure

CC[C@@]1(O)C(=O)OCc2c1cc1n(c2=O)Cc2cc3c(CN(C)C)c(O)ccc3nc2-1 [Topotecan]
drug–drug interaction, topotecan PK profiles in presence and absence of sorafenib ([4]; cycle 1 day 1 vs cycle 2 day 1): no apparent drug–drug interaction | T min ([4]; Cycle 1 Day 1 – 1.0 mg/m^2 (n = 3), without sorafenib): 4.7 (±1.1) h | T min ([4]; Cycle 2 Day 1 – 1.0 mg/m^2 (n = 3), sorafenib at steady state): 9.2 (±3.6) h
